# What was measured:
# Japanese bulrush = assay: Test Example 1: herbicidal activity, application before weed generation under submerged conditions (Table 16, symbol B); assay type: in vivo, Japanese bulrush (Schoenoplectus juncoides); settings: 320 g/ha applied herbicide
# In short: (§1)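 Submerged Wagner pots (alluvial soil, 4 cm water) sown with weed seeds and planted with 2.5-leaf rice seedlings; emulsifiable concentrate diluted in water applied to water surface on sowing day. Held in greenhouse at 25-30 °C; injury scored 0-5 by herbicidal rate after three weeks.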
# lambsquarters = assay: Test Example 5: herbicidal effect by foliage application, plastic box (Table 20, symbol O); assay type: in vivo, lambsquarters (Chenopodium album); settings: foliage application, evaluated three weeks after application; for herbicidal effect on O: lambsquarters (criteria 0-5): 320 g/ha; for O: lambsquarters, herbicidal effect (criteria 0-5): AAH 320 g/ha
# In short: (§2)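 Plants sown in sterilized diluvial soil and grown 14 days in a greenhouse at 25° C to 30° C, then sprayed on the foliage with the compound's emulsion diluted in water to a predetermined herbicide amount. Injury to weeds and crops scored three weeks after application on a visual rating scale.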
# persian speedwell = assay: Test Example 4: herbicidal effect by soil treatment (Table 19, symbol R); assay type: in vivo, Persian speedwell (Veronica persica); settings: amount of applied herbicide 320 g/ha
# In short: (§3)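 Three weeks of greenhouse growth at 25° C. to 30° C. followed a uniform surface spray of water-diluted emulsion at a predetermined herbicide amount. Seeds had been sown beforehand under about 1.5 cm of sterilized diluvial soil. Grading followed criteria set out in an earlier test.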
# late watergrass = assay: Test Example 1: herbicidal activity, application before weed generation under submerged conditions (Table 16, symbol A); assay type: in vivo, late watergrass (Echinochloa oryzicola); settings: 320 g/ha applied herbicide
# In short: as §1
# blackgrass = assay: Test Example 4: herbicidal effect by soil treatment (Table 19, symbol J); assay type: in vivo, blackgrass (Alopecurus myosuroides); settings: amount of applied herbicide 320 g/ha
# In short: as §3
# southern crabgrass = assay: Test Example 5: herbicidal effect by foliage application, plastic box (Table 20, symbol F); assay type: in vivo, southern crabgrass (Digitaria ciliaris); settings: foliage application, evaluated three weeks after application; for herbicidal effect on F: southern crabgrass (criteria 0-5): 320 g/ha; for F: southern crabgrass, herbicidal effect (criteria 0-5): AAH 320 g/ha
# In short: as §2
# oval-leafed pondweed [1] = assay: Test Example 1: herbicidal activity, application before weed generation under submerged conditions (Table 16, symbol C); assay type: in vivo, oval-leafed pondweed (Monochoria vaginalis); settings: 320 g/ha applied herbicide
# In short: as §1
# Chinese sprangletop = assay: Test Example 3: herbicidal effect by foliage application, Wagner pot (Table 18, symbol D); assay type: in vivo, chinese sprangletop (Leptochloa chinensis); settings: amount of applied herbicide 320 g/ha
# In short: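 Plants were sown in alluvial soil held under 0.1–0.5 cm standing water and grown 14 days in a greenhouse at 25–30 °C. An emulsifiable formulation, water-diluted to the set dose, was then sprayed onto the foliage, and effects were scored three weeks later using previously defined criteria.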
# oval-leafed pondweed [2] = assay: Test Example 2: herbicidal activity, application during weed generation under submerged conditions (Table 17, symbol C); assay type: in vivo, oval-leafed pondweed (Monochoria vaginalis); settings: AAH 320 g/ha; application during weed generation, submerged conditions
# In short: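 Wagner pot, alluvial soil, 4 cm flood; mixed sowing of all species; greenhouse 25° C.–30° C. Emulsifiable formulation, water-diluted to predetermined dose, applied to paddy water at 1–2 leaf stage. Effect rated at 3 wk using the earlier test's scoring criteria.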
# windgrass = assay: Test Example 4: herbicidal effect by soil treatment (Table 19, symbol L); assay type: in vivo, windgrass (Apera spica-venti); settings: amount of applied herbicide 320 g/ha
# In short: as §3
# barnyard grass = assay: Test Example 5: herbicidal effect by foliage application, plastic box (Table 20, symbol H); assay type: in vivo, barnyard grass (Echinochloa crus-galli); settings: foliage application, evaluated three weeks after application; for herbicidal effect on H: barnyard grass (criteria 0-5): 320 g/ha; for H: barnyard grass, herbicidal effect (criteria 0-5): AAH 320 g/ha
# In short: as §2
SMILES,Herbicidal effect on B: Japanese bulrush (grade 0-5) (Japanese bulrush),herbicidal effect on O: lambsquarters (criteria 0-5) (lambsquarters),herbicidal effect on R: persian speedwell (persian speedwell),Herbicidal effect on A: late watergrass (grade 0-5) (late watergrass),herbicidal effect on J: blackgrass (blackgrass),herbicidal effect on F: southern crabgrass (criteria 0-5) (southern crabgrass),Herbicidal effect on C: oval-leafed pondweed (grade 0-5) (oval-leafed pondweed [1]),herbicidal effect on D: Chinese sprangletop (Chinese sprangletop),"herbicidal effect rating, C: oval-leafed pondweed (oval-leafed pondweed [2])",herbicidal effect on L: windgrass (windgrass),herbicidal effect on H: barnyard grass (criteria 0-5) (barnyard grass),"O: lambsquarters, herbicidal effect (criteria 0-5) (lambsquarters)","F: southern crabgrass, herbicidal effect (criteria 0-5) (southern crabgrass)","H: barnyard grass, herbicidal effect (criteria 0-5) (barnyard grass)"
Cc1nn(C)c(=O)c(-c2c(-c3ccc(C(F)F)cc3)sc3ccc(F)cc23)c1O [2-227],0 (Herbicidal rate of 5% or less (almost no effect)),5 (Herbicidal rate of 90% or more (almost completely withered)),4 (Herbicidal rate of 70% or more and less than 90%),3 (Herbicidal rate of 40% or more and less than 70%),1 (Herbicidal rate of 5% or more and less than 20%),5 (Herbicidal rate of 90% or more (almost completely withered)),0 (Herbicidal rate of 5% or less (almost no effect)),3 (Herbicidal rate of 40% or more and less than 70%),0 (Herbicidal rate of 5% or less (almost no effect)),0 (Herbicidal rate of 5% or less (almost no effect)),5 (Herbicidal rate of 90% or more (almost completely withered)),–,–,–
CCCSc1ccc(-c2sc3ccc(F)cc3c2-c2c(OC(=O)CCC)c(C)nn(C)c2=O)cc1 [2-249],2 (Herbicidal rate of 20% or more and less than 40%),4 (Herbicidal rate of 70% or more and less than 90%),4 (Herbicidal rate of 70% or more and less than 90%),3 (Herbicidal rate of 40% or more and less than 70%),0 (Herbicidal rate of 5% or less (almost no effect)),5 (Herbicidal rate of 90% or more (almost completely withered)),0 (Herbicidal rate of 5% or less (almost no effect)),3 (Herbicidal rate of 40% or more and less than 70%),2 (Herbicidal rate of 20% or more and less than 40%),0 (Herbicidal rate of 5% or less (almost no effect)),5 (Herbicidal rate of 90% or more (almost completely withered)),–,–,–
Cc1nn(C)c(=O)c(-c2c(-c3ccc(SC(C)C)cc3)sc3ccc(F)cc23)c1O [2-252],2 (Herbicidal rate of 20% or more and less than 40%),5 (Herbicidal rate of 90% or more (almost completely withered)),5 (Herbicidal rate of 90% or more (almost completely withered)),3 (Herbicidal rate of 40% or more and less than 70%),0 (Herbicidal rate of 5% or less (almost no effect)),4 (Herbicidal rate of 70% or more and less than 90%),1 (Herbicidal rate of 5% or more and less than 20%),5 (Herbicidal rate of 90% or more (almost completely withered)),2 (Herbicidal rate of 20% or more and less than 40%),0 (Herbicidal rate of 5% or less (almost no effect)),5 (Herbicidal rate of 90% or more (almost completely withered)),–,–,–
CCCC(=O)Oc1c(C)nn(C)c(=O)c1-c1c(-c2ccc(SC(C)C)cc2)sc2ccc(F)cc12 [2-253],3 (Herbicidal rate of 40% or more and less than 70%),–,2 (Herbicidal rate of 20% or more and less than 40%),5 (Herbicidal rate of 90% or more (almost completely withered)),0 (Herbicidal rate of 5% or less (almost no effect)),–,0 (Herbicidal rate of 5% or less (almost no effect)),3 (Herbicidal rate of 40% or more and less than 70%),3 (Herbicidal rate of 40% or more and less than 70%),0 (Herbicidal rate of 5% or less (almost no effect)),–,4 (Herbicidal rate of 70% or more and less than 90%),4 (Herbicidal rate of 70% or more and less than 90%),5 (Herbicidal rate of 90% or more (almost completely withered))
CCCC(=O)Oc1c(C)nn(C)c(=O)c1-c1c(-c2ccc(SC3CC3)cc2)sc2ccc(F)cc12 [2-255],3 (Herbicidal rate of 40% or more and less than 70%),–,5 (Herbicidal rate of 90% or more (almost completely withered)),5 (Herbicidal rate of 90% or more (almost completely withered)),1 (Herbicidal rate of 5% or more and less than 20%),–,3 (Herbicidal rate of 40% or more and less than 70%),4 (Herbicidal rate of 70% or more and less than 90%),2 (Herbicidal rate of 20% or more and less than 40%),3 (Herbicidal rate of 40% or more and less than 70%),–,4 (Herbicidal rate of 70% or more and less than 90%),5 (Herbicidal rate of 90% or more (almost completely withered)),5 (Herbicidal rate of 90% or more (almost completely withered))
Cc1nn(C)c(=O)c(-c2c(-c3ccc(OC(F)F)cc3)sc3ccc(F)cc23)c1OC(=O)COc1ccccc1 [2-284],3 (Herbicidal rate of 40% or more and less than 70%),–,5 (Herbicidal rate of 90% or more (almost completely withered)),3 (Herbicidal rate of 40% or more and less than 70%),5 (Herbicidal rate of 90% or more (almost completely withered)),–,3 (Herbicidal rate of 40% or more and less than 70%),3 (Herbicidal rate of 40% or more and less than 70%),3 (Herbicidal rate of 40% or more and less than 70%),4 (Herbicidal rate of 70% or more and less than 90%),–,5 (Herbicidal rate of 90% or more (almost completely withered)),3 (Herbicidal rate of 40% or more and less than 70%),5 (Herbicidal rate of 90% or more (almost completely withered))

# From patent US20230085307A1, “PYRIDAZINONE COMPOUND AND HERBICIDE” (NISSAN CHEMICAL CORPORATION, priority 2019, published 2023)
